# Molecular target: AMPK
# Test: AMPK activation, enzyme-linked immunosorbent assay
# Assay type: biochemical
# Settings: Table 8, compounds of Table 1
# Method in brief: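 Read-out: ELISA, used to detect compound-driven activation of AMPK.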
row,EC50 [nM],Structure (SMILES)
1,< 100,"CN(C(=O)c1cc2cc(OC3CCN(c4ccc(C(F)(F)F)cc4)CC3)ccc2o1)C1CCN(Cc2cccc(C#N)c2)CC1 [Compound 1-110, N-(1-(3-cyanobenzyl)piperidin-4-yl)-N-methyl-5-(1-(4-(trifluoromethyl)phenyl)piperidin-4-yloxy)benzofuran-2-carboxamide]"
2,> 10000,"COC(=O)c1ccc(CN2CCC(NC(=O)c3ccc(OC4CCN(c5ccc(C(F)(F)F)cc5)CC4)nc3)CC2)cc1 [Compound 1-45, methyl 4-((4-(6-(1-(4-(trifluoromethyl)phenyl)piperidin-4-yloxy)nicotinamido)piperidin-1-yl)methyl)benzoate]"
3,< 100,"O=C(NC1CCN(Cc2cccnc2)CC1)c1ccc(OC2CCN(c3ccc(C(F)(F)F)cc3)CC2)cn1 [Compound 1-5, N-(1-(pyridin-3-ylmethyl)piperidin-4-yl)-5-(1-(4-(trifluoromethyl)phenyl)piperidin-4-yloxy) picolinamide]"
4,< 100,"O=C(NC1CCN(C(=O)c2ccncc2)CC1)c1cc2cc(OC3CCN(c4ccc(C(F)(F)F)cc4)CC3)ccc2o1 [Compound 1-115, N-(1-isonicotinoylpiperidin-4-yl)-5-(1-(4-(trifluoromethyl)phenyl)piperidin-4-yloxy)benzofuran-2-carboxamide]"
5,100 to 500,"O=C(NC1CCN(Cc2ccncc2)CC1)c1cc(OC2CCN(c3ccc(C(F)(F)F)cc3)CC2)ccn1 [Compound 1-13, N-(1-(pyridin-4-ylmethyl)piperidin-4-yl)-4-(1-(4-(trifluoromethyl)phenyl)piperidin-4-yloxy)picolinamide]"
6,> 10000,"O=C(NC1CCN(Cc2ccc(F)cc2)CC1)c1cc2ccc(OC3CCN(c4ccc(C(F)(F)F)cc4)CC3)cc2o1 [Compound 1-91, N-(1-(4-fluorobenzyl)piperidin-4-yl)-6-(1-(4-(trifluoromethyl)phenyl)piperidin-4-yloxy)benzofuran-2-carboxamide]"
7,< 100,"N#Cc1ccc(CN2CCC(NC(=O)c3sc4cc(OC5CCN(c6ccc(C(F)(F)F)cc6)CC5)ccc4c3Cl)CC2)cc1 [Compound 1-154, 3-chloro-N-(1-(4-cyanobenzyl)piperidin-4-yl)-6-(1-(4-(trifluoromethyl)phenyl)piperidin-4-yloxy)benzo[b] thiophene-2-carboxamide]"
8,1000 to 5000,"O=C(N[C@@H]1CCN(Cc2ccccn2)C1)c1cc2cc(OC3CCN(c4ccc(C(F)(F)F)cc4)CC3)ccc2o1 [Compound 1-124, (R)-N-(1-(pyridin-2-ylmethyl)pyrrolidin-3-yl)-5-(1-(4-(trifluoromethyl)phenyl)piperidin-4-yloxy)benzofuran-2-carboxamide]"
9,100 to 500,"NC(=O)c1ccc(CN2CCC(Oc3ccc4oc(C(=O)NC5CCN(Cc6ccccc6)CC5)cc4c3)CC2)cc1 [Compound 1-116, N-(1-benzylpiperidin-4-yl)-5-(1-(4-carbamoylbenzyl)piperidin-4-yloxy)benzofuran-2-carboxamide]"

# Same assay, conditions: Table 9, compounds of Table 2
row,EC50 [nM],Structure (SMILES)
1,1000 to 5000,"N#Cc1cccc(S(=O)(=O)N2CCC(NC(=O)c3ccc4[nH]c5c(c4c3)CN(Cc3ccc(C(F)(F)F)cc3)CC5)CC2)c1 [Compound 2-29, N-(1-(3-cyanophenylsulfonyl)piperidin-4-yl)-2-(4-(trifluoromethyl)benzyl)-2,3,4,5-tetrahydro-1H-pyrido[4,3-b]indole-8-carboxamide]"

# Same assay, conditions: Table 10, compounds of Table 3
row,EC50 [nM],Structure (SMILES)
1,100 to 1000,"O=C(c1nc2ccc(OC3CCN(c4ccc(C(F)(F)F)cc4)CC3)cc2o1)N1CC2CC1CN2Cc1ccncc1 (stereo not shown) [Compound 3-8, (5-(pyridin-4-ylmethyl)-2,5-diazabicyclo[2.2.1]heptan-2-yl)(6-(1-(4-(trifluoromethyl)phenyl)piperidin-4-yloxy)benzo[d]oxazol-2-yl)methanone]"
2,100 to 1000,"O=C(NC1CCN(Cc2ccc(C(F)(F)F)cc2)CC1)c1ccc2c(c1)CN(Cc1ccc(F)cc1)CC2 [Compound 3-36, 2-(4-fluorobenzyl)-N-(1-(4-(trifluoromethyl)benzyl)piperidin-4-yl)-1,2,3,4-tetrahydroisoquinoline-7-carboxamide]"

# Same assay, conditions: Table 11, compounds of Table 4
row,EC50 [nM],Structure (SMILES)
1,< 500,"CC(C)S(=O)(=O)c1ccc(N2CCN(C(=O)c3ccc(C(=O)NC4CCN(Cc5ccc(OC(F)(F)F)cc5)C[C@H]4F)cn3)CC2)cc1 (stereo partly drawn) [Compound 4-11, N-((3,4-trans)-3-fluoro-1-(4-(trifluoromethoxy)benzyl)piperidin-4-yl)-6-(4-(4-(isopropylsulfonyl)phenyl)piperazine-1-carbonyl)nicotinamide]"

# Same assay, conditions: Table 12, compounds of Table 5
row,EC50 [nM],Structure (SMILES)
1,< 1000,"O=C(NC1CCN(Cc2ccccc2)CC1)c1ccc(OC2CCN(Cc3ccc(C(F)(F)F)cc3)CC2)c(F)c1 [Compound 5-55, N-(1-benzylpiperidin-4-yl)-3-fluoro-4-(1-(4-(trifluoromethyl)benzyl)piperidin-4-yloxy)benzamide]"
2,1000 to 10000,"O=C(NCCCN1CCOCC1)c1ccc(OC2CCN(Cc3ccc(Cl)cc3)CC2)cc1 [Compound 5-100, 4-(1-(4-chlorobenzyl)piperidin-4-yloxy)-N-(3-morpholinopropyl)benzamide]"
3,< 1000,"COc1ccc(CN2CCC(Oc3ccc(C(=O)NC4CCN(Cc5ccccc5)CC4)cc3Cl)CC2)cc1 [Compound 5-1, N-(1-benzylpiperidin-4-yl)-3-chloro-4-(1-(4-methoxybenzyl)piperidin-4-yloxy)benzamide]"
4,< 1000,"O=C(NC1CCN(Cc2ccccc2)CC1)c1ccc(OC2CCN(Cc3ccc(Cl)c(Cl)c3)CC2)c(F)c1 [Compound 5-82, N-(1-benzylpiperidin-4-yl)-4-(1-(3,4-dichlorobenzyl)piperidin-4-yloxy)-3-fluorobenzamide]"
5,1000 to 10000,"COc1cc(C(=O)NCCCN2CCOCC2)ccc1OC1CCN(Cc2ccc(Cl)cc2)CC1 [Compound 5-98, 4-(1-(4-chlorobenzyl)piperidin-4-yloxy)-4-methoxy-N-(3-morpholinopropyl)benzamide]"
6,< 1000,"COc1cc(C(=O)NC2CCN(Cc3ccccc3)CC2)ccc1OC1CCN(CCCc2ccccc2)CC1 [Compound 5-7, N-(1-benzylpiperidin-4-yl)-3-methoxy-4-(1-(3-phenylpropyl)piperidin-4-yloxy)benzamide]"

# Same assay, conditions: Table 13, compounds of Table 6
row,EC50 [nM],Structure (SMILES)
1,100 to 1000,"O=C(NC1CCN(Cc2ccncc2)CC1)c1cc2cc(C(=O)N3CCC(C(=O)c4ccc(F)cc4)CC3)ccc2o1 [Compound 6-15, 5-(4-(4-fluorobenzoyl)piperidine-1-carbonyl)-N-(1-(pyridin-4-ylmethyl)piperidin-4-yl)benzofuran-2-carboxamide]"
2,< 100,"CS(=O)(=O)c1ccc(CN2CCN(C(=O)c3ccc4cc(C(=O)NC5CCN(Cc6ccc(OC(F)(F)C(F)F)cc6)CC5)oc4c3)CC2)cc1 [Compound 6-7, 6-(4-(4-(methylsulfonyl)benzyl)piperazine-1-carbonyl)-N-(1-(4-(1,1,2,2-tetrafluoroethoxy)benzyl)piperidin-4-yl)benzofuran-2-carboxamide]"
3,100 to 1000,"N#Cc1ccc(CN2CCC(NC(=O)c3cc4cc(C(=O)NC5CCN(Cc6ccc(OC(F)(F)F)cc6)CC5)ccc4o3)CC2)cc1 [Compound 6-93, N2-(1-(4-cyanobcnzyl)piperidin-4-yl)-N5-(1-(4-(trifluoromethoxy)benzyl)piperidin-4-yl)benzofuran-2,5-dicarboxamide]"
4,100 to 1000,"COc1ccc(CN2CCC(NC(=O)c3cc4cc(NC(=O)c5ccc(Oc6ccc(F)cc6)cc5)ccc4o3)CC2)cc1 [Compound 6-23, 5-(4-(4-fluorophenoxy)benzamido)-N-(1-(4-methoxybenzyl)piperidin-4-yl)benzofuran-2-carboxamide]"
5,100 to 1000,"N#Cc1ccc(CN2CCC(NC(=O)c3cc4cc(NC(=O)C5CN(c6ccc(C#N)cc6)C5)ccc4o3)CC2)cc1 [Compound 6-74, N-(2-(1-(4-cyanobenzyl)piperidin-4-ylcarbamoyl)benzofuran-5-yl)-1-(4-cyanophenyl)azetidine-3-carboxamide]"
6,< 100,"COc1ccc(CN2CCC(NC(=O)c3cc4cc(C(=O)N5CCN(Cc6ccc(S(C)(=O)=O)cc6)CC5)ccc4o3)CC2)cc1F [Compound 6-154, N-(1-(3-fluoro-4-methoxybenzyl)piperidin-4-yl)-5-(4-(4-(methylsulfonyl)benzyl)piperazine-1-carbonyl) benzofuran-2-carboxamide]"
7,1000 to 10000,"N#Cc1ccc(CN2CCC(NC(=O)c3cc4cc(NC(=O)c5ccc(-c6nnc[nH]6)cc5)ccc4o3)CC2)cc1 [Compound 6-60, 5-(4-(4H-1,2,4-triazol-3-yl)benzamido)-N-(1-(4-cyanobenzyl)piperidin-4-yl)benzofuran-2-carboxamide]"

# Same assay, conditions: Table 14, compounds of Table 7
row,EC50 [nM],Structure (SMILES)
1,1000 to 10000,"CS(=O)(=O)c1ccc(OC2CCN(C(=O)c3ccc(C(=O)NC4CCN(Cc5ccc(OC(F)(F)F)cc5)C[C@H]4F)cn3)CC2)cc1 (stereo partly drawn) [Compound 7-49, N-((3,4-trans)-3-fluoro-1-(4-(trifluoromethoxy)benzyl)piperidin-4-yl)-6-(4-(4-(methylsulfonyl)phenoxy)piperidine-1-carbonyl) nicotmamide]"
2,< 1000,"COc1ccc(C(=O)C2CCN(C(=O)c3ccc(C(=O)NC4CCN(Cc5ccc(C)c(C#N)c5)C[C@H]4F)cn3)CC2)cc1 (stereo partly drawn) [Compound 7-58, N-((3,4-trans)-1-(3-cyano-4-methylbenzyl)-3-fluoropiperidin-4-yl)-6-(4-(4-methoxybenzoyl)piperidine-1-carbonyl)nicotinamide]"
3,< 1000,"CC(=O)c1ccc(Oc2ccc(NC(=O)c3ccc(C(=O)N4CCC(C(=O)c5ccc(OC(F)(F)F)cc5)CC4)nc3)cn2)cc1 [Compound 7-70, N-(6-(4-acetylphenoxy)pyridin-3-yl)-6-(4-(4-(trifluoromethoxy)benzoyl)piperidine-1-carbonyl) nicotinamide]"
4,< 1000,"O=C(NC1CCN(Cc2ccc(OC(F)(F)F)cc2)C[C@H]1F)c1ccc(C(=O)N2CCC(C(=O)c3ccc(N4CCCC4)cc3)CC2)nc1 (stereo partly drawn) [Compound 7-57, N-((3,4-trans)-3-fluoro-1-(4-(trifluoromethoxy)benzyl)piperidin-4-yl)-6-(4-(4-(pyrrolidin-1-yl)benzoyl)piperidine-1-carbonyl) nicotinamide]"
5,< 1000,"COc1ccc(CN2CCC(NC(=O)c3ccc(C(=O)N4CCC(C(=O)c5ccc(N6CCCC6)cc5)CC4)nc3)CC2)cc1 [Compound 7-109, N-(1-(4-methoxybenzyl)piperidin-4-yl)-6-(4-(4-(pyrrolidin-1-yl)benzoyl)piperidine-1-carbonyl)nicotinamide]"
